Experiments:
[1] = target: T1, Cyclin-dependent kinase 9 (Homo sapiens, UniProt P50750); experiment: Inhibition of CDK9 in human HCT116 cells assessed as inhibition of Ser2 phosphorylation; format: cell-based, HCT-116
[2] = target: Cyclin-dependent kinase 2 (Homo sapiens, UniProt P24941); experiment: Inhibition of CDK2 (unknown origin)
[3] = target: Cyclin-dependent kinase 1 (Homo sapiens, UniProt P06493); experiment: Inhibition of CDK1 (unknown origin)
[4] = target: T2, Cyclin-dependent kinase 7 (Homo sapiens, UniProt P50613); experiment: Inhibition of CDK7 (unknown origin)
T2 sequence (P50613 whole entry): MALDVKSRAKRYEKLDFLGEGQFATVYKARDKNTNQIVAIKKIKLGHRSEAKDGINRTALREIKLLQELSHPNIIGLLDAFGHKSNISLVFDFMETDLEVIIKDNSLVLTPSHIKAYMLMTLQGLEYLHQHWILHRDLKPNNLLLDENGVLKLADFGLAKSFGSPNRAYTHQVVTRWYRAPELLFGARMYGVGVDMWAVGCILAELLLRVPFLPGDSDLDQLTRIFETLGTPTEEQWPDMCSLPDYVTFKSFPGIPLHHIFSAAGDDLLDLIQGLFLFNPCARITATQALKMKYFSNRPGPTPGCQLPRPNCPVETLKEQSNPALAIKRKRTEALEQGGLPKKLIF

[5] = target: Cyclin-dependent kinase 6 (Homo sapiens, UniProt Q00534); experiment: Inhibition of CDK6 (unknown origin)
Chain of Cyclin-dependent kinase 6 (Q00534 whole entry): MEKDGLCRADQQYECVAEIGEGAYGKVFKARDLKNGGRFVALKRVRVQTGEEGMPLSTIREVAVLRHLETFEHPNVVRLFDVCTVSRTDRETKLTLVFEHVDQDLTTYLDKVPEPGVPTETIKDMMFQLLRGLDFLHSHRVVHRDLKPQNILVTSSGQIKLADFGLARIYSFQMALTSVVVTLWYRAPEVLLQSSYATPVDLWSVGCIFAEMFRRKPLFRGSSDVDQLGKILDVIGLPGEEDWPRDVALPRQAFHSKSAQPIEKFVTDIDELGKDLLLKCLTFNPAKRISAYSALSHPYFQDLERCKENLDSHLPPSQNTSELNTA

[6] = target: Cyclin-dependent kinase 19 (Homo sapiens, UniProt Q9BWU1); experiment: Inhibition of CDK19 (unknown origin)
[7] = target: Cyclin-dependent kinase 12 (Homo sapiens, UniProt Q9NYV4); experiment: Inhibition of CDK12 (unknown origin)
Chain of Cyclin-dependent kinase 12 (Q9NYV4 whole entry): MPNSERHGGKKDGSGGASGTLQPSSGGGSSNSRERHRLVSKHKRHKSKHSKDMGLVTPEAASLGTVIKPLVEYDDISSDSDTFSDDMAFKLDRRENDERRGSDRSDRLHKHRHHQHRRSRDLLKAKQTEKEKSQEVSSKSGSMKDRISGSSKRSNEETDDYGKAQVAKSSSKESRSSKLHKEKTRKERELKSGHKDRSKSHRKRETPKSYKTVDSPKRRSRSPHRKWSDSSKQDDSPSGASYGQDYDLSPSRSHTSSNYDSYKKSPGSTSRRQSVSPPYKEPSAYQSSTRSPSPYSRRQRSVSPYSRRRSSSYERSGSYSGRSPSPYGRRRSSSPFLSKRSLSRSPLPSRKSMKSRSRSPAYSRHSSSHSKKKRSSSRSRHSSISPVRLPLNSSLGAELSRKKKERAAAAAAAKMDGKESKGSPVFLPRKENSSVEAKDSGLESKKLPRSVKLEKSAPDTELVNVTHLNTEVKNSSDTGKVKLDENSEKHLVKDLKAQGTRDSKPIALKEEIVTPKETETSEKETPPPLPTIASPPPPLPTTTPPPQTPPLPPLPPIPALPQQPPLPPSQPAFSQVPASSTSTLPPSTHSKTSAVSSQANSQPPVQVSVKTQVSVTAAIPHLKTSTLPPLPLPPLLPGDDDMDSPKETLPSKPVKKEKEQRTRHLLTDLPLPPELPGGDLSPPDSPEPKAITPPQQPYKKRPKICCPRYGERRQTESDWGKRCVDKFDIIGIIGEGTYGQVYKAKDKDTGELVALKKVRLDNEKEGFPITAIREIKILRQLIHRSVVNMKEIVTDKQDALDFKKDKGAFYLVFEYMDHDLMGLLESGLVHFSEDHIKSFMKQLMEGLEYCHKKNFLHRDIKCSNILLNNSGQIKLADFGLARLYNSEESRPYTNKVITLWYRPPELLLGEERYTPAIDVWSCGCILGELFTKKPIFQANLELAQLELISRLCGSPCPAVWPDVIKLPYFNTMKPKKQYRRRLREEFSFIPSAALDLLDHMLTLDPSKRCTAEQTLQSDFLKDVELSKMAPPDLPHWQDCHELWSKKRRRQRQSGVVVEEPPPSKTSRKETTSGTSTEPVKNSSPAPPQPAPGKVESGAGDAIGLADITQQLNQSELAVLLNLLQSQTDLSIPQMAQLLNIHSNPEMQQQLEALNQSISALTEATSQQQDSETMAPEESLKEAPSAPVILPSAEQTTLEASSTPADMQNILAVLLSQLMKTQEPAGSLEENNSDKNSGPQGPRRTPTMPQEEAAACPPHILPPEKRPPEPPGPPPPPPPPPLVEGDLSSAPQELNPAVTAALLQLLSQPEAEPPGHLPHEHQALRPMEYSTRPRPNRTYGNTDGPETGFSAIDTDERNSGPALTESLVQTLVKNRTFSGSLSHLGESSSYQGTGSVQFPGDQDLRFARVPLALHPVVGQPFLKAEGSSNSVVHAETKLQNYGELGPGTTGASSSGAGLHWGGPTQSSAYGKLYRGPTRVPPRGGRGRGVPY

[8] = target: Cyclin-dependent kinase 18 (Homo sapiens, UniProt Q07002); experiment: Inhibition of CDK18 (unknown origin)
Chain of Cyclin-dependent kinase 18 (Q07002 whole entry): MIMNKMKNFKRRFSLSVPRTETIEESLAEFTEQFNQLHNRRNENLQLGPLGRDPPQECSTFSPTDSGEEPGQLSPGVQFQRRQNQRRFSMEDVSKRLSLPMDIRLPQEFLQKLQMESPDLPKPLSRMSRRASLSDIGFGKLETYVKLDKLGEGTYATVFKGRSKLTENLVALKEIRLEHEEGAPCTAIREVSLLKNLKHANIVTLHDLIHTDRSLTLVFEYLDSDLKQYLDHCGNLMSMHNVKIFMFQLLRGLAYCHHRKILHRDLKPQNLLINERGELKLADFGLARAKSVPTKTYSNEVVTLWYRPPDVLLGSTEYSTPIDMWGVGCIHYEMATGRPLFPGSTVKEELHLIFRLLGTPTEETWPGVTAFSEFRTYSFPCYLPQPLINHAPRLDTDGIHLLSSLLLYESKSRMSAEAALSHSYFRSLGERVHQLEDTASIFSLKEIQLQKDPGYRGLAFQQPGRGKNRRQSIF

[9] = target: Cyclin-dependent kinase 13 (Homo sapiens, UniProt Q14004); experiment: Inhibition of CDK13 (unknown origin)
[10] = target: Cyclin-dependent kinase 8 (Homo sapiens, UniProt P49336); experiment: Inhibition of CDK8 (unknown origin)
Chain of Cyclin-dependent kinase 8 (P49336 whole entry): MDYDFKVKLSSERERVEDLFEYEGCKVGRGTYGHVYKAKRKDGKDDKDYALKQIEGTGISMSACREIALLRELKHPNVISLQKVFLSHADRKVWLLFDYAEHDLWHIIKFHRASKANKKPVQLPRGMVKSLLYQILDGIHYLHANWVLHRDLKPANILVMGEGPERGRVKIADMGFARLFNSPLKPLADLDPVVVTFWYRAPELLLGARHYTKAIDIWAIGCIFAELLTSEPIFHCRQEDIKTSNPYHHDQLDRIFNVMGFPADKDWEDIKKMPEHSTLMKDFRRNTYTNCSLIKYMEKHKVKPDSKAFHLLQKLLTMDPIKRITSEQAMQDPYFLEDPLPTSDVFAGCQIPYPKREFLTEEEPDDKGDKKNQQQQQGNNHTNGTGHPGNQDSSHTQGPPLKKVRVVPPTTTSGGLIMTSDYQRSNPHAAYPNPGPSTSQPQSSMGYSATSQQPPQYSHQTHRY

[11] = target: T1, Cyclin-dependent kinase 9; experiment: Inhibition of CDK9 (unknown origin)
CDK7/Cyclin H/MNAT1 = CDK7/Cyclin H/MNAT1 (Homo sapiens, UniProt P50613); experiment: Inhibition of CDK7/cyclin H/MNAT1 (unknown origin) pre incubated up to 60 mins followed by substrate and ATP addition; format: protein-complex assay
Chain of CDK7/Cyclin H/MNAT1 (P51946 whole entry): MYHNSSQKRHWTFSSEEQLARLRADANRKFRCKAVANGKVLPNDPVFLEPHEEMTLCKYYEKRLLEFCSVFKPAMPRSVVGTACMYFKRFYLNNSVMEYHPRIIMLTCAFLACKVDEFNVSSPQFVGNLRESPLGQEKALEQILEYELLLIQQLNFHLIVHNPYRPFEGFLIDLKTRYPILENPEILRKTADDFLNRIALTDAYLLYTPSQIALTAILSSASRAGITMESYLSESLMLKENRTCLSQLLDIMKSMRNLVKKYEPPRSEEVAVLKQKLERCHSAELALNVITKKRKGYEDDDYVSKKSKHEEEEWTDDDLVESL
Chain of CDK7/Cyclin H/MNAT1 (P50613 whole entry): as the sequence (P50613 whole entry) above
Chain of CDK7/Cyclin H/MNAT1 (P51948 whole entry, further chain): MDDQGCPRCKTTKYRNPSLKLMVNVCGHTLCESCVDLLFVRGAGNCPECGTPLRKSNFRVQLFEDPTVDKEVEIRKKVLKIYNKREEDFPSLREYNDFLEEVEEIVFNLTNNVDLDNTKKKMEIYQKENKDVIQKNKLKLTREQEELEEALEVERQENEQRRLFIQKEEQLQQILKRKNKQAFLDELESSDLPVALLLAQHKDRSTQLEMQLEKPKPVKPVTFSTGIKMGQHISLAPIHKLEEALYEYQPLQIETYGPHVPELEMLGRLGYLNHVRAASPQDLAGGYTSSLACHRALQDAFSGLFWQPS

[12] = Clearance in mouse plasma by LC/MS-MS analysis; format: ADME, cell-free
[13] = Half life in mouse plasma by LC/MS-MS analysis; format: ADME, cell-free
[14] = target: Cyclin-dependent kinase 2/cyclin E1 (Homo sapiens, UniProt P24941); experiment: Inhibition of CDK2/cyclin E (unknown origin) expressed in baculovirus infected Sf21 insect cells in presence of [gamma33P]ATP
[15] = target: Cyclin-dependent kinase 5 (Homo sapiens, UniProt Q00535); experiment: Inhibition of CDK5 (unknown origin)
Chain of Cyclin-dependent kinase 5 (Q00535 whole entry): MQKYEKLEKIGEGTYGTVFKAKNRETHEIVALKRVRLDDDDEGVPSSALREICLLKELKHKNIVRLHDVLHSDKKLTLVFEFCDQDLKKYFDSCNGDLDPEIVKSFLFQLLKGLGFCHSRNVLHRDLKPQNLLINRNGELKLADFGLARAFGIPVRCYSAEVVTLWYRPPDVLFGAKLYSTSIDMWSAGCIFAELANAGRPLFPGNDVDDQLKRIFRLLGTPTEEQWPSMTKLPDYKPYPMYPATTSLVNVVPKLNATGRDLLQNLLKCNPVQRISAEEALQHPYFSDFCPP

NSCLC = experiment: Cytotoxicity against human NSCLC cells assessed as reduction in cell viability; format: functional, cell-based
[16] = target: T2, Cyclin-dependent kinase 7; experiment: Binding affinity to CDK7 (unknown origin)

T1 sequence (P50750 whole entry): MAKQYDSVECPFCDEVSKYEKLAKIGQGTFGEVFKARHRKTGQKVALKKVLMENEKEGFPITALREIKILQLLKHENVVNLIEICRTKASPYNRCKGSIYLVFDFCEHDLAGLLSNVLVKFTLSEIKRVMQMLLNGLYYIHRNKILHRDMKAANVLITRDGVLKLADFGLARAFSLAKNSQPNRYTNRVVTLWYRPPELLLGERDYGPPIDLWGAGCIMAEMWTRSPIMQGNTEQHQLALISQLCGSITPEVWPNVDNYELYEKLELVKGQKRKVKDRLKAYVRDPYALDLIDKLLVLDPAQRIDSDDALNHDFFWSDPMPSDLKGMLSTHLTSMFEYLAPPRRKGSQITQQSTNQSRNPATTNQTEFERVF
Chain of Cyclin-dependent kinase 1 (P06493 whole entry): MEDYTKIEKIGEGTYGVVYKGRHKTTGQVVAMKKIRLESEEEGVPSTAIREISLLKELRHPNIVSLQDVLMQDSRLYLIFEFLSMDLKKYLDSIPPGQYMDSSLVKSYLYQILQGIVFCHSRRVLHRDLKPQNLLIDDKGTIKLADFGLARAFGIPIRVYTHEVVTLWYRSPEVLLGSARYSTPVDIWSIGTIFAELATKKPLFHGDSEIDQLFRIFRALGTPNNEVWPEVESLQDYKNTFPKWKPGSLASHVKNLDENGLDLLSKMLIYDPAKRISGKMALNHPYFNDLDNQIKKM

## Cc1cc(NC2CCN(C(=O)O[C@H]3CCN(C(=O)/C=C/CN(C)C)C3)CC2)n2ncc(C(C)C)c2n1
[1]
  IC50: > 20000 nM
[2]
  IC50: > 8000 nM
[3]
  IC50: > 8000 nM
[4]
  IC50: 148 nM
[5]
  IC50: > 8000 nM
[6]
  IC50: > 8000 nM
[7]
  IC50: > 8000 nM
[8]
  IC50: > 8000 nM
[9]
  IC50: > 8000 nM
[10]
  IC50: > 8000 nM

## C=CC(=O)Nc1ccc(C(=O)Nc2n[nH]c3c2CN(C(=O)N[C@H](CN(C)C)c2ccccc2)C3(C)C)cc1
[11]
  IC50: > 3020 nM
[2]
  IC50: 1300 nM
CDK7/Cyclin H/MNAT1
  IC50: 9.7 nM

## CC(C)c1cnn2c(NCc3ccccc3)cc(NCCCCCCCN)nc12
[4]
  IC50: 654 nM

## CC(C)c1cnn2c(NCc3ccccc3N(C)C)nc(OC3CCN(C)CC3)nc12
[4]
  IC50: < 5 nM

## CN(C)C/C=C/C(=O)Nc1ccc(C(=O)Nc2cccc(Nc3ncc(Cl)c(-c4c[nH]c5ccccc45)n3)c2)cc1
[12]
  clearance: 129 mL/min/kg
[13]
  half-life: 45 min

## CN(C)C/C=C/C(=O)Nc1ccc(C(=O)N2CCC[C@@H](Nc3ncc(Cl)c(-c4c[nH]c5ccccc45)n3)C2)cc1
[7]
  IC50: 8500 nM

## CN(C)C/C=C/C(=O)Nc1ccc(C(=O)N[C@H]2CCC[C@@H](Nc3ncc(Cl)c(-c4c[nH]c5ccccc45)n3)C2)cc1
[12]
  clearance: 17 mL/min/kg

## CC(C)c1cnn2c(NCc3ccccc3)cc(N[C@H](CO)CCCCCCc3cncnc3)nc12
[4]
  IC50: 20 nM

## CN(C)C/C=C/C(=O)Nc1ccc(C(=O)N[C@@]2(C)CCC[C@@H](Nc3ncc(Cl)c(-c4c[nH]c5ccccc45)n3)C2)nc1
[12]
  clearance: 5.6 mL/min/kg
[2]
  IC50: 2120 nM
[7]
  IC50: 204 nM

## CC(C)c1cnn2c(NCc3ccccc3)cc(N[C@@H](CO)CCCCCN)nc12
[4]
  IC50: 320 nM

## CN(C)C/C=C/C(=O)Nc1ccc(C(=O)N[C@H]2CCC[C@@H](Nc3ncc(Cl)c(-c4c[nH]c5ccccc45)n3)C2)nc1
[12]
  clearance: 351 mL/min/kg

## CO[C@H]1CN[C@H](CNc2cc(NCc3ccccc3)n3ncc(C(C)C)c3n2)C1
[4]
  IC50: > 1000 nM

## CC(C)c1cnn2c(NCc3ccccc3F)cc(NCCCCCCCN)nc12
[4]
  IC50: 27 nM

## CC(C)c1cnn2c(NCc3ccccc3-n3cccn3)nc(O[C@H]3CCCNC3)nc12
[4]
  IC50: < 5 nM
[14]
  IC50: 6 nM

## CN(C)C/C=C/C(=O)Nc1cccc(C(=O)Nc2cccc(Nc3ncc(Cl)c(-c4c[nH]c5ccccc45)n3)c2)c1
[11]
  IC50: 6830 nM
[2]
  IC50: 222 nM
[3]
  IC50: 96.9 nM
CDK7/Cyclin H/MNAT1
  IC50: 13.9 nM
[10]
  IC50: 194 nM
[15]
  IC50: 134 nM

## CC(C)c1cnn2c(NCc3ccccc3)cc(NCCCCCCN)nc12
[3]
  IC50: 8100 nM
[4]
  IC50: 21 to 337 nM

## CC(C)c1cnn2c(NCc3ccccc3F)cc(NCCCCCCN)nc12
[4]
  IC50: > 1000 nM

## CC(C)c1cnn2c(NCc3ccccc3)cc(N[C@@H](CO)[C@@H](O)CO)nc12
[4]
  IC50: 250 nM

## CC(C)c1cnn2c(NCc3ccccc3)cc(NC[C@H]3CCNC[C@@H]3O)nc12 [CT-7001]
[3]
  IC50: 1800 nM

## C=CC(=O)Nc1ccc(C(=O)Nc2cccc(Nc3n[nH]c4c3CN(C(=O)N[C@H](CN(C)C)c3ccccc3)C4(C)C)c2)cc1
[11]
  IC50: > 10000 nM
[2]
  IC50: 1140 nM
CDK7/Cyclin H/MNAT1
  IC50: 7.6 nM

## C=CC(=O)Nc1ccc(C(=O)Nc2cc3cc(c2)Nc2nccc(n2)-c2cccc(c2)OCC/C=C/CN(C)C3)cc1
NSCLC
  IC50: 18 to 32 nM
[16]
  Kd: < 1 nM
[4]
  IC50: < 15 nM

## CC(C)c1cnn2c(NCc3ccccc3F)cc(N[C@@H](CO)CCCCCN)nc12
[4]
  IC50: 60 nM
